Measured values from patent US10913871B2, “Ink composition, method for producing the same, and image-forming method” (FUJIFILM CORPORATION, priority 2017, dated 2021).

test: Solubility in water of specified hydrophobic compound or comparative compound; type: physicochemical; details: water at 25° C.
Protocol: Specifically, a Erlenmeyer flask is charged with 20 g of the test substance and 80 g of water, and shaken at 25° C. for 24 hours. The resultant solution is filtered through a 5 μm membrane filter, to obtain filtrate. The obtained filtrate (5 g) is evaporated to dryness at 100° C. for 3 hours. From the mass of the residual, the content (mass %) of the test substance dissolved in the filtrate relative to the total amount of the filtrate is calculated. The calculated content (mass %) is defined as the solubility in water of the test substance.
Specifically, an Erlenmeyer flask is charged with 100 g of water; while the internal temperature is maintained at 25° C., the test substance is gradually dropped. The dropping is ended when visual observation finds cloudiness in the liquid within the Erlenmeyer flask. The mass (mass %) of the test substance dropped until the end of the dropping relative to the total mass of the liquid within the Erlenmeyer flask is defined as the solubility in water of the test substance.

Question: Which Solubility in water does the source give for `CCCCCCCCCCCCCCCCCC(=O)OC` [EXCEPARL MS] here?
Answer: Its Solubility in water is under 1 mass %.

Question: For `CCCCCCCCCCCCCCCCCCO` [Stearyl alcohol], which Solubility in water is on record?
Answer: Its Solubility in water is under 1 mass %.

Question: Which Solubility in water does the source give for `CCCCCCCCCCCCCCCCCCCCCCO` [Example 1-Docosanol, 1-Docosanol] here?
Answer: The Solubility in water was under 1 mass %.

Question: Which Solubility in water does the source give for `CCCCCCCCCCCCCCCCCCCCO` [Example 1-Eicosanol, 1-Eicosanol] here?
Answer: The Solubility in water was under 1 mass %.

Question: With `CCCCCCCCO` [Example 1-Octanol, 1-Octanol] as the compound, how does the Solubility in water read?
Answer: Its Solubility in water is under 1 mass %.

Question: With `CCCCCCCCCCC(CO)CCCCCCCC` (stereo not drawn) [2-Octyldodecanol] as the compound, how does the Solubility in water read?
Answer: Its Solubility in water is under 1 mass %.
